Drawing on patent US20090175852A1, “IMIDAZOPYRAZINES AS PROTEIN KINASE INHIBITORS” (Schering Corporation, priority 2006, published 2009), this text covers IC50 for four molecules.

In one experiment the target is Mk2 (Homo sapiens, UniProt P49137). Briefly: Mk2 kinase inhibition (Table 4 activity data). The format is biochemical.
In another experiment the target is T1, CHK-1 (Homo sapiens, UniProt O14757).
T1 sequence (O14757 1-476): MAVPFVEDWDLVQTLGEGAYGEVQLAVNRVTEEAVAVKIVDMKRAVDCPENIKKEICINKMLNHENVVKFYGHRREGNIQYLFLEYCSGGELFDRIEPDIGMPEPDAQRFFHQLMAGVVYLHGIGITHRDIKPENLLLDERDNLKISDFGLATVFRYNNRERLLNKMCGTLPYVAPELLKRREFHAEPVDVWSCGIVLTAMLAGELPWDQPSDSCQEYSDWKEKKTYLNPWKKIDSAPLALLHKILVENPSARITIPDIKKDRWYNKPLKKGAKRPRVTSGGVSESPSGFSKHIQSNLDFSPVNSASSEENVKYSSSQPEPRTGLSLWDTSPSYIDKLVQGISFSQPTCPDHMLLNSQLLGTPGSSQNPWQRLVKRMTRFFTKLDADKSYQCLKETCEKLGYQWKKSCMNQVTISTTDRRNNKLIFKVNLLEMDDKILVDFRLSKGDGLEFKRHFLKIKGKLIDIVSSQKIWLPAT
Briefly: CHK-1 kinase inhibition (Table 4 activity data). The format is biochemical.

Sequence of Mk2 (P49137 whole entry, species assumed): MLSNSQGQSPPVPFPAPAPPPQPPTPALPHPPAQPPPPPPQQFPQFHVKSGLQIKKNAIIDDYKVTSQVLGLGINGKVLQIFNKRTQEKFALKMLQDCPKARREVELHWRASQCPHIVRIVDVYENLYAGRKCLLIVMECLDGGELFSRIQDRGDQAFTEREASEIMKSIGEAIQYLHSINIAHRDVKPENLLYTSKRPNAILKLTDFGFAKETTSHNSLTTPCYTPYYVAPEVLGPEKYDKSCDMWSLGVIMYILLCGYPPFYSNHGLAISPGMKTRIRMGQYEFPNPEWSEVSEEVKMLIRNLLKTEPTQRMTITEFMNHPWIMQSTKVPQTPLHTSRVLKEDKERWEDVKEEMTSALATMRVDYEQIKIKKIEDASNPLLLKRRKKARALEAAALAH

Consider `NC(=O)c1cnc(N[C@H]2CC[C@H](N)CC2)c2nc(-c3ccc(Cl)cc3)cn12` [Compound 12], for which the IC50 – broadly, the point on the concentration scale where inhibition reaches its midpoint – against Mk2 came out at 60 nM.

As for `N#Cc1cccc(-c2cn3c(C#N)cnc(N[C@H]4CCCNC4)c3n2)c1` [Compound 44], inhibition against CHK-1 was half-maximal at 870 nM (IC50).

As to `NC(=O)c1cnc(N[C@H]2CCCNC2)c2nc(-c3ccc(Cl)cc3)cn12` [Compound 5], the half-inhibitory concentration (IC50) was determined as 39 nM against CHK-1 and 650 nM at Mk2.

For the molecule `NC(=O)c1cccc(-c2cn3c(C(N)=O)cnc(N[C@H]4CCCNC4)c3n2)c1` [Compound 39], the IC50 is 55 nM on CHK-1 and 810 nM at Mk2.
